The text below walks through data of patent publication US20220395477A1, “COMPOSITIONS AND METHODS FOR PREVENTING AND TREATING RESPIRATORY SYNCYTIAL VIRUS INFECTION” (priority 2019, published 2022).

The test system of this test is RSV Line 19 (rA2-KL19F). The test is described as follows: RFP (mKate2)-expressing RSV infection of A549 cells pretreated with SCFAs 24 hours before infection (RFP/DAPI). It counts as cell-based, Human Respiratory Syncytial Virus. The settings on record: single SCFA 100 to 300 μM, 3 MOI, imaged after 48 hours. How it is done:
Images taken after 48 Hrs.
Cells were infected at 3 MOI of RSV Line 19 (rA2-KL19F) expressing a red fluorescent marker, mKate2, as well as the F protein from the mucogenic clinical strain, and media was replaced with the appropriate SCFAs that was previously used in cultured. After 48 hours, the cells were stained with NucBlue (life technologies) and imaged using a Keyence fluorescence microscope (FIGS. 4A-4B).

Take `CCC(=O)O` [propionate]: the “expression of RFP-MKate (RFP/DAPI)” value is given as “reduces the expression of RFP-MKate”.

As for `CC(=O)O` [acetate], the “expression of RFP-MKate (RFP/DAPI)” value is recorded as “reduces the expression of RFP-MKate”.
